Data set [1] deals with T1, S100A9 (Homo sapiens, UniProt P06702).
T1 sequence (P06702 1-114): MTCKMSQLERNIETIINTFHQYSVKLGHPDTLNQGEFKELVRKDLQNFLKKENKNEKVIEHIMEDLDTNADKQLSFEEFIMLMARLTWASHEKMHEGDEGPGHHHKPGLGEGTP
The following applies: peptides that target or recognize and bind S100A9; screening described in Park et al. 2021; cited from earlier work.

Data set [2] is described as follows: Biodistribution of Cy5-labeled CPMV and CCMV particles after i.v. injection (ex vivo IVIS). The settings on record: for accumulation/clearance in liver (share of fluorescence signal): Cy5-labeled particles, 200 μg i.v., organs harvested after 24 h; for lung homing (in words): healthy and B16F10 tumor-bearing mice, i.v., 24 h. As for the experimental part: Healthy and B16F10 metastatic tumor-bearing C57BL/6 female mice were used for biodistribution studies of the Cy5-labeled CPMV and CCMV from Section 2. B16F10 cells (200,000 cells/mouse) were administered i.v. and the tumors were matured for one week. […] After 24 hours, the lungs were harvested and then imaged and quantified for fluorescence using the IVIS (Xenogen).
Both healthy and B16F10 tumor-bearing mice were injected with native and H6/G3-conjugated CPMV and CCMV; to enable tracking the nanoparticles were labeled with Cy5. Lungs and other organs were harvested 24 h following intravenous (i.v.) nanoparticle injection and imaged ex vivo to observe localization of the nanoparticles in the lungs, spleen, kidney, and liver (FIG. 3A).

The subject of a further data set is B16F10 melanoma cells. Kind of data set: B16F10 i.v. challenge to CPMV and CCMV pre-treated mice (prophylaxis). It counts as in vivo, C57BL/6J mice. The text has this: After 7 days, the mice were challenged by i.v. administration of 200,000 B16F10 melanoma cells per mouse. Lungs were harvested at day 21 (day 14 after tumor inoculation) and fixed in a 10% (v/v) neutral-buffered formalin solution overnight. Following fixation, the lungs were stored in 70% (v/v) ethanol (EtOH), and the number of tumor nodules per lung was manually counted.
After tumor nodule counting, the fixed lung samples were submitted to the La Jolla Institute for Immunology for hematoxylin and eosin (H&E) staining and imaging. Paraffin-embedded blocks were sectioned at 4 μm on a Leica RM2125 RTS microtome. The sections were then floated on a 42° C. tissue flotation bath and mounted onto Fisher Superfrost Plus microscope slides and subjected to H&E staining. Scanning was accomplished using a ZEISS AxioScan Z1 using a 20× objective. The ratio of tumor cells to total cells was measured from the histology slides using QuPath software^68.
To investigate the suitability of S100A9-targeted VNPs to serve as a prophylactic immunotherapy preventing manifestation of lung metastasis, we used a lung metastasis mouse model using C57BL/6J mice i.v. challenged with B16F10 melanoma cells. C57BL/6J mice were pre-exposed to the CPMV (therapeutic) and CCMV (control) nanoparticles with and without the H6/G3 targeting ligands, one week before being challenged i.v. with B16F10 melanoma cells (FIG. 4A). Lungs were harvested 2 weeks post tumor challenge, and tumor nodules were manually counted. […] This experiment was repeated one more time with only the CPMV particles as well as the H6 peptide only control (FIG. 4D).

The subject of data set [3] is RAW-Blue cells: Toll-like receptor (TLR) and NOD stimulation. Briefly: RAW-Blue immunogenicity assay (SEAP, QUANTI-Blue). The settings on record: for immunogenicity, activation of NF-κB and AP-1, CPMV compared to CCMV (in words): FIG. 6B, 0.5 μg, 18 hours per method. It counts as cell-based. On the procedure: The immunogenicity of CPMV and CCMV was compared through a RAW-Blue™ assay (Invivogen). Briefly, 100,000 RAW-Blue™ cells/well were incubated with 0.5 μg of CPMV and CCMV, 50 EU mL-1 E. coli endotoxin standard control (ThermoScientific), or culture media for 18 hours. Toll-like receptor (TLR) and nucleotide-binding oligomerization domain (NOD) stimulation was assessed by measuring the levels of secreted embryonic alkaline phosphatase (SEAP) using a QUANTI-Blue™ (Invivogen) assay. Absorbance was measured at 655 nm using a Tecan microplate reader.
The immunogenicity between CPMV and its peptide-conjugated counterparts was also assessed using a RAW-Blue™ assay. […] A QUANTI-Blue™ assay was run like before, and absorbance was measured at 655 nm.

Data set [4] addresses T2, S100A9 (Mus musculus, UniProt P31725).
T2 construct: confocal imaging of tumor-bearing lungs sections was performed; from tissue; host or cells: lungs of B16F10-inoculated C57BL/6 mice
T2 sequence (P31725 1-113): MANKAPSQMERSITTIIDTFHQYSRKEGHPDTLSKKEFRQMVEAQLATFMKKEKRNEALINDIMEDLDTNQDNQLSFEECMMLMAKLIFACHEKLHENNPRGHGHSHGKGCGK
Kind of data set: Confocal imaging of co-localization with S100A9 in tumor-bearing lung sections. It counts as in vivo, B16F10-inoculated mice.

In data set [5] the test system is innate immune cells in the lungs (DCs, neutrophils, macrophages). Briefly: Flow cytometry of innate immune cell profile in lungs. The settings on record: 200 μg i.v., lungs after 24 h; FACS (FIG. 6C). It counts as in vivo, C57BL/6 mice. As for the experimental part:
Lungs were harvested after 24 hours. Harvested organs were each placed in separate gentle MACS C tubes (Miltenyi Biotec) and dissociated with enzymatic solutions (lung dissociation kits, Miltenyi Biotec). The C tube lid was tightly screwed, inverted, and inserted in a gentleMACS dissociator (Militenyi Biotec). Organs were minced and digested on appropriate gentleMACS programs. After digestion, cells were passed through 40 μm pore size strainers and centrifuged at 500 g for 5 min. The cell pellet was resuspended in 5 mL of 1× RBC lysis solution (eBioscience) and incubated at RT for 2 min, followed by the addition of RPMI-1640 medium to stop lysis. Cells were centrifuged again at 500 g for 5 min and resuspended in PBS with 1% BSA and 2 mM EDTA (FACS solution). Total cell count and viability were found using trypan blue solution (Sigma-Aldrich) and a Countess™ automated cell counter (Invitrogen). Cell concentrations were adjusted to 1.0×10^7 cells/mL.
To reduce background staining of antibodies, 0.25 μg of purified rat anti-mouse CD16/32 (Biolegend) was added to 100 μL cell suspensions before adding to the conjugated antibodies. Cells were incubated at RT for ten minutes prior to immunofluorescence staining. All antibodies for immunofluorescence staining were purchased from Biolegend and diluted in FACS solution according to the manufacturer's recommendation. […]
In general terms: Flow cytometry measures light scatter and fluorescence of single cells or particles in a stream.

Data set [6] deals with 4T1-Luc cells. Kind of data set: Treatment of 4T1-Luc lung metastasis (immunotherapy). It counts as in vivo, Balb/c mice. The following applies: 200 μg i.v. 3 days post tumor inoculation. As for the experimental part:
4T1-luc cells (100,000/mouse) were injected i.v. into female Balb/c mice (n=15). […] Tumor growth was monitored by total bioluminescence imaging based on the i.p. injection of 150 mg/kg of body weight D-luciferin. Total bioluminescence was determined using the Living Image 3.0 software, and ROI were quantified as average counts.
A representative IVIS image on day 9 is shown in FIG. 5E while further imaging can be found in FIG. 13. […] The unabated tumor growth led to the mice in the PBS and CPMV groups all dying within 15 days or reaching their clinical endpoints before being sacrificed (FIG. 13B).

For data set [7], the system named is 4T1-Luc cells. Kind of data set: 4T1-Luc i.v. challenge to CPMV pre-treated mice (prophylaxis). It counts as in vivo, Balb/c mice. As for the experimental part:
After 5 days, the mice were challenged by i.v. injection of 200,000 4T1-Luc cells. The mice were imaged with the IVIS using luminescent imaging every 3 days by injecting intraperitoneally (i.p.) 150 mg/kg of body weight D-luciferin. ROI measurements were taken through the Living Image 3.0 software. The weight of the mice was also tracked every 3 days. After 25 days (20 days after tumor inoculation), the lungs were collected and fixed in Bouin's solution for 3 days. Each tumor nodule on the lungs was counted manually and averaged between the mice in each group.
To determine whether the prophylactic effect of S100A9-targeted CPMV could be replicated in other tumor models, we first exposed Balb/C mice to CPMV and S100A9-targeted CPMV by i.v. injection, and then challenged mice with luciferase-labeled 4T1 (4T1-Luc) cells. This experimental lung metastatic model mimics metastatic triple negative breast cancer (TNBC). Tumor cell challenge was carried out 5 days post CPMV exposure (FIG. 4G). […] By day 21, all the mice in the PBS treatment group had to be sacrificed due to significant weight loss (FIG. 12B). […] The lungs were harvested after 25 days and fixed in Bouin's solution before manual counting of tumor nodules (FIG. 4H, FIG. 4I). […] There was no significant difference between the CPMV and the CPMV-G3.

The target of data set [8] is T3, CPMV-Cy5-PEG (cowpea mosaic virus nanoparticle without targeting peptide) (Cowpea mosaic virus, UniProt P03599 460-833; P03599 834-1022).
T3 sequence 1: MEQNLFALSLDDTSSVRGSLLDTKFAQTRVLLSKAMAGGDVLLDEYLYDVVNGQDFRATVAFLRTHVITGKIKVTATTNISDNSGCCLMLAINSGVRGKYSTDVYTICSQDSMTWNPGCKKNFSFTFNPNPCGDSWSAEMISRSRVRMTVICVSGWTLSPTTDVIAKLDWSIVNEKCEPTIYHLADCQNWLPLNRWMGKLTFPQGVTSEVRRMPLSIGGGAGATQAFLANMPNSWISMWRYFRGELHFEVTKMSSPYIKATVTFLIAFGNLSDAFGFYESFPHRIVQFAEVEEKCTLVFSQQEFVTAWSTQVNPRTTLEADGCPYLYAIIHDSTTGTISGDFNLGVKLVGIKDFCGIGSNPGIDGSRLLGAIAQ
T3 sequence 2: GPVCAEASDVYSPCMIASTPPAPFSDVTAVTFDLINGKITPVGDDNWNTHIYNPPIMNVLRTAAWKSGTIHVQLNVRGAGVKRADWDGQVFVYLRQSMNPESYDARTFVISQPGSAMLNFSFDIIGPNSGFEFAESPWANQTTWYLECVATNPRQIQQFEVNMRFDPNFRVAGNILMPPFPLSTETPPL
Briefly: confocal imaging of tumor-bearing mouse lung sections after i.v. injection of the particles, S100A9 stained with antibody.

We go through eight molecules from patent US20240209325A1, “CANCER PROPHYLAXIS AND THERAPY USING TARGETED VIRAL NANOPARTICLES” (priority 2021, published 2024).

“Also recorded” adds a separate entry of the source. Some results are limits rather than exact numbers.

On to “peptide that binds S100A9, ACNSHRHGACGGGS (SEQ ID NO: 12) [MTP5]”, for which the Kd in the data set with S100A9 [1] was 67.6 µM.

In the case of “scrambled control peptide MDPHAHNGGGS (SEQ ID NO: 16) [reference compound]”, the KD result with S100A9 [1] is reported as “no binding”.

As to “peptide that binds S100A9, ACNSVHQHHCGGGS (SEQ ID NO: 13) [MTP6]”, in the data set with S100A9 [1], the equilibrium dissociation constant (Kd) is 39.6 µM.

Consider cowpea chlorotic mottle virus [CCMV], for which, in data set [2], the “accumulation/clearance in liver (share of fluorescence signal)” value is recorded as 75% and the “lung homing (in words)” value is listed as “does not home to the lungs”. Also, in the data set on B16F10 melanoma cells (first study (FIG. 4C), compared to PBS), the “effect on tumor burden in the lungs (in words)” value is on record as “This effect was not seen”. In [3], the “immunogenicity, activation of NF-κB and AP-1, CPMV compared to CCMV (in words)” value was “immunostimulated by CPMV and not CCMV”.

Turning to “peptide that binds S100A9, ASSHIHHGGGS (SEQ ID NO: 10) [MTP2]”, in the data set with S100A9 [1], the equilibrium dissociation constant (Kd) is 77.6 µM.

As for Cowpea mosaic virus [CPMV], at S100A9 [4], the “association/co-localization with S100A9 (in words)” value is given as “no association with S100A9”. In [2], the “accumulation/clearance in liver (share of fluorescence signal)” value worked out at 75% and the “lung homing (in words)” value was “do not home to the lungs; also recorded: did not accumulate in the lungs”. For the same molecule, in [5], the “immune cell recruitment and activation in the lungs (in words)” value is given as “did not produce a significant impact”. In the data set on B16F10 melanoma cells (H&E lung histology, QuPath (FIG. 4F)), the “reduction of the ratio of tumor:total cells” value was determined as 1.7 fold. Besides, in the data set on B16F10 melanoma cells (first study (FIG. 4C), 200 μg i.v. 7 days before challenge, lungs 2 weeks post challenge), the “decrease of tumor nodules (tumor burden) in the lungs compared to PBS” value turned out to be 2.1 fold. Moreover, the “reduction of tumor nodules compared to PBS” value with B16F10 melanoma cells (repeated experiment (FIG. 4D)) turned out to be 1.7 fold. Moreover, in the data set with 4T1-Luc cells [6], the “time by which all mice died or reached clinical endpoints” value is at most 15 days and the “tumor burden / tumor growth by bioluminescence (in words)” value is given as “significant tumor burden; also recorded: unable to slow 4T1-Luc tumor growth”. The “TLR and/or NOD agonism / immunostimulation (in words)” value in data set [3] (CPMV, peptide-conjugated CPMV and peptides only, 10 μg, 24 h (FIG. 6A)) is recorded as “strong TLR and/or NOD agonists”. Besides, the “immunogenicity, activation of NF-κB and AP-1, CPMV compared to CCMV (in words)” value in data set [3] is listed as “much more immunogenic compared to CCMV; also recorded: higher level of activation; also recorded: immunostimulated by CPMV”. Besides, in the data set on 4T1-Luc cells [7] (225 μg i.v. 5 days before challenge, lungs harvested after 25 days), the “decrease in tumor nodules compared to PBS” value is on record as 10.6 fold. Moreover, in the data set with 4T1-Luc cells [7] (IVIS every 3 days, up to day 21), the “tumor growth by luminescent imaging (in words)” value was “no signs of tumor growth by day 21”. The “side effects (in words)” value in the data set on 4T1-Luc cells [7] (throughout the experiment) was “no apparent side effects were observed”. The “weight of the mice (in words)” value in the data set on 4T1-Luc cells [7] (tracked every 3 days throughout the experiment) is listed as “stayed fairly consistent”.

With “peptide that binds S100A9, HNHMADPGGGS (SEQ ID NO: 11) [MTP3]”, the Kd in the data set with S100A9 [1] is 117 µM.

B1: S100A9 (S100 calcium-binding protein A9), endogenous, in lung sections of B16F10 tumor-bearing C57BL/6 mice (other)
chain: ANKAPSQMERSITTIIDTFHQYSRKEGHPDTLSKKEFRQMVEAQLATFMKKEKRNEALINDIMEDLDTNQDNQLSFEECMMLMAKLIFACHEKLHENNPRGHGHSHGKGCGK
notes: also called MRP14; calgranulin B
Take B1: the binding result in [8] is “no binding”.

A word on the Kd: it is the constant that tells how readily two partners part at equilibrium.
